In patent publication US11370798B2 (Vertex Pharmaceuticals Incorporated, priority 2012, dated 2022):

Test system: HCT116 colorectal cancer cells
Assay: Cisplatin sensitization assay (96 h cell viability MTS);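 also: Test-compound concentration that lowers the Cisplatin IC50 by a set fold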
Format: cell-based
Settings: compound and Cisplatin added simultaneously, Cisplatin sensitization value
Summary of the method: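 Viability read by MTS (1 h at 37° C) after 96 h co-exposure at 37° C, 5% CO2. Test compound and cisplatin were dosed simultaneously in a full concentration matrix, each 2-fold serially diluted from 10 μM final; sensitization values binned in μM.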

SMILES	Cisplatin Sensitization Assay
CN1CCN(c2ccncc2NC(=O)c2c(N)nn3cc(Cl)cnc23)CC1 [I-N-59, 2-amino-6-chloro-N-(4-(4-methylpiperazin-1-yl)pyridin-3-yl)pyrazolo[1,5-a]pyrimidine-3-carboxamide]	++ (Cisplatin sensitization value>0.02 μM but <0.2 μM)
Cc1cncn1-c1ccncc1NC(=O)c1c(N)nn2cc(F)cnc12 [I-N-283, 2-amino-6-fluoro-N-(4-(5-methyl-1H-imidazol-1-yl)pyridin-3-yl)pyrazolo[1,5-a]pyrimidine-3-carboxamide]	++ (Cisplatin sensitization value>0.02 μM but <0.2 μM)
Nc1nn2cc(F)cnc2c1C(=O)Nc1cncc(F)c1N1CCC(CN2CCCC2=O)CC1 [I-N-213, 2-amino-6-fluoro-N-(5-fluoro-4-(4-((2-oxopyrrolidin-1-yl)methyl)piperidin-1-yl)pyridin-3-yl)pyrazolo[1,5-a]pyrimidine-3-carboxamide]	+++ (Cisplatin sensitization value of <0.02 μM)
Nc1nn2cc(F)cnc2c1C(=O)Nc1cnccc1N1CCC2(CCNC2)CC1 [I-N-255, N-(4-(2,8-diazaspiro[4.5]decan-8-yl)pyridin-3-yl)-2-amino-6-fluoropyrazolo[1,5-a]pyrimidine-3-carboxamide]	++ (Cisplatin sensitization value>0.02 μM but <0.2 μM)
CN1CCN(c2ccncc2NC(=O)c2c(N)nn3cc(F)cnc23)CC12CCOCC2 [I-N-133, 2-amino-6-fluoro-N-(4-(1-methyl-9-oxa-1,4-diazaspiro[5.5]undecan-4-yl)pyridin-3-yl)pyrazolo[1,5-a]pyrimidine-3-carboxamide]	++ (Cisplatin sensitization value>0.02 μM but <0.2 μM)
Nc1nn2cc(Cl)cnc2c1C(=O)Nc1cnccc1N1CCCC(N)C1 (centres unmarked) [I-N-55, 2-amino-N-(4-(3-aminopiperidin-1-yl)pyridin-3-yl)-6-chloropyrazolo[1,5-a]pyrimidine-3-carboxamide]	++ (Cisplatin sensitization value>0.02 μM but <0.2 μM)
COC(=O)N1CCN(c2c(F)cncc2NC(=O)c2c(N)nn3cc(F)cnc23)CC1 [I-N-261, methyl-4-(3-(2-amino-6-fluoropyrazolo[1,5-a]pyrimidine-3-carboxamido)-5-fluoropyridin-4-yl)piperazine-1-carboxylate]	+++ (Cisplatin sensitization value of <0.02 μM)
CC(C)(C)Oc1ccncc1NC(=O)c1c(N)nn2cc(F)cnc12 [I-O-88, 2-amino-N-(4-(tert-butoxy)pyridin-3-yl)-6-fluoropyrazolo[1,5-a]pyrimidine-3-carboxamide]	+++ (Cisplatin sensitization value of <0.02 μM)
CN1CC2CN(c3c(Cl)cncc3NC(=O)c3c(N)nn4cc(F)cnc34)CC2C1 (centres unmarked) [I-N-286, 2-amino-N-(5-chloro-4-(5-methylhexahydropyrrolo[3,4-c]pyrrol-2(1H)-yl)pyridin-3-yl)-6-fluoropyrazolo[1,5-a]pyrimidine-3-carboxamide]	++ (Cisplatin sensitization value>0.02 μM but <0.2 μM)
Nc1nn2cc(F)cnc2c1C(=O)Nc1cncc(F)c1N1CCC(C(=O)N2CCC(N3CCCCC3)C2)CC1 (centres unmarked) [I-G-64, 2-amino-6-fluoro-N-(5-fluoro-4-(4-(3-(piperidin-1-yl)pyrrolidine-1-carbonyl)piperidin-1-yl)pyridin-3-yl)pyrazolo[1,5-a]pyrimidine-3-carboxamide]	+++ (Cisplatin sensitization value of <0.02 μM)
Nc1nn2cc(Cl)cnc2c1C(=O)Nc1cnccc1OCC(F)(F)F [I-O-59, 2-amino-6-chloro-N-(4-(2,2,2-trifluoroethoxy)pyridin-3-yl)pyrazolo[1,5-a]pyrimidine-3-carboxamide]	+++ (Cisplatin sensitization value of <0.02 μM)
Nc1nn2cc(F)cnc2c1C(=O)Nc1cncc(F)c1N1CCN(S(=O)(=O)C2CC2)CC1 [I-N-159, 2-amino-N-(4-(4-(cyclopropylsulfonyl)piperazin-1-yl)-5-fluoropyridin-3-yl)-6-fluoropyrazolo[1,5-a]pyrimidine-3-carboxamide]	+++ (Cisplatin sensitization value of <0.02 μM)
N#CCc1cnc2c(C(=O)Nc3cnccc3O[C@@H]3CCOC3)c(N)nn2c1 [I-O-31, (R)-2-amino-6-(cyanomethyl)-N-(4-((tetrahydrofuran-3-yl)oxy)pyridin-3-yl)pyrazolo[1,5-a]pyrimidine-3-carboxamide]	+++ (Cisplatin sensitization value of <0.02 μM)
CN(C)C1CN(C2CCN(c3ccncc3NC(=O)c3c(N)nn4cc(Cl)cnc34)CC2)C1 [I-N-94, 2-amino-6-chloro-N-(4-(4-(3-(dimethylamino)azetidin-1-yl)piperidin-1-yl)pyridin-3-yl)pyrazolo[1,5-a]pyrimidine-3-carboxamide]	+++ (Cisplatin sensitization value of <0.02 μM)
Nc1nn2cc(Cl)cnc2c1C(=O)Nc1cnccc1N1CCn2ccnc2C1 [I-N-44, 2-amino-6-chloro-N-(4-(5,6-dihydroimidazo[1,2-a]pyrazin-7(8H)-yl)pyridin-3-yl)pyrazolo[1,5-a]pyrimidine-3-carboxamide]	++ (Cisplatin sensitization value>0.02 μM but <0.2 μM)
N#CCc1cnc2c(C(=O)Nc3cnccc3N3CCCCCC3)c(N)nn2c1 [I-N-79, 2-amino-N-(4-(azepan-1-yl)pyridin-3-yl)-6-(cyanomethyl)pyrazolo[1,5-a]pyrimidine-3-carboxamide]	++ (Cisplatin sensitization value>0.02 μM but <0.2 μM)
Nc1nn2cc(Cl)cnc2c1C(=O)Nc1cnccc1N1CCN(CC(F)(F)F)CC1 [I-N-67, 2-amino-6-chloro-N-(4-(4-(2,2,2-trifluoroethyl)piperazin-1-yl)pyridin-3-yl)pyrazolo[1,5-a]pyrimidine-3-carboxamide]	+++ (Cisplatin sensitization value of <0.02 μM)
COc1ccncc1NC(=O)c1c(N)nn2cc(F)cnc12 [I-O-4, 2-amino-6-fluoro-N-(4-methoxypyridin-3-yl)pyrazolo[1,5-a]pyrimidine-3-carboxamide]	++ (Cisplatin sensitization value>0.02 μM but <0.2 μM)
CC(=O)N1CCN(c2c(F)cncc2NC(=O)c2c(N)nn3cc(F)cnc23)CC1 [I-N-275, N-(4-(4-acetylpiperazin-1-yl)-5-fluoropyridin-3-yl)-2-amino-6-fluoropyrazolo[1,5-a]pyrimidine-3-carboxamide]	+++ (Cisplatin sensitization value of <0.02 μM)
Cc1cncc(NC(=O)c2c(N)nn3cc(F)cnc23)c1N1CCN(C2CCOCC2)CC1 [I-N-123, 2-amino-6-fluoro-N-(5-methyl-4-(4-(tetrahydro-2H-pyran-4-yl)piperazin-1-yl)pyridin-3-yl)pyrazolo[1,5-a]pyrimidine-3-carboxamide]	++ (Cisplatin sensitization value>0.02 μM but <0.2 μM)
CN1CCN(C(=O)N2CCC(c3ccncc3NC(=O)c3c(N)nn4cc(F)cnc34)CC2)CC1 [I-C-17, 2-amino-6-fluoro-N-(4-(1-(4-methylpiperazine-1-carbonyl)piperidin-4-yl)pyridin-3-yl)pyrazolo[1,5-a]pyrimidine-3-carboxamide]	++ (Cisplatin sensitization value>0.02 μM but <0.2 μM)
CC(C)N1CCCC1C(=O)N1CCN(c2c(F)cncc2NC(=O)c2c(N)nn3cc(F)cnc23)CC1 (centres unmarked) [I-N-205, 2-amino-6-fluoro-N-(5-fluoro-4-(4-(1-isopropylpyrrolidine-2-carbonyl)piperazin-1-yl)pyridin-3-yl)pyrazolo[1,5-a]pyrimidine-3-carboxamide]	++ (Cisplatin sensitization value>0.02 μM but <0.2 μM)
CN1CCN(C(=O)C2CCN(c3c(F)cncc3NC(=O)c3c(N)nn4cc(F)cnc34)CC2)CC1(C)C [I-G-15, 2-amino-6-fluoro-N-(5-fluoro-4-(4-(3,3,4-trimethylpiperazine-1-carbonyl)piperidin-1-yl)pyridin-3-yl)pyrazolo[1,5-a]pyrimidine-3-carboxamide]	+++ (Cisplatin sensitization value of <0.02 μM)
Nc1nn2cc(F)cnc2c1C(=O)Nc1cnccc1N1CCN2C(=O)CC[C@@H]2C1 [I-N-258, (R)-2-amino-6-fluoro-N-(4-(6-oxohexahydropyrrolo[1,2-a]pyrazin-2(1H)-yl)pyridin-3-yl)pyrazolo[1,5-a]pyrimidine-3-carboxamide]	++ (Cisplatin sensitization value>0.02 μM but <0.2 μM)
Cc1nnc(N2CCN(c3ccncc3NC(=O)c3c(N)nn4cc(F)cnc34)CC2)o1 [I-N-256, 2-amino-6-fluoro-N-(4-(4-(5-methyl-1,3,4-oxadiazol-2-yl)piperazin-1-yl)pyridin-3-yl)pyrazolo[1,5-a]pyrimidine-3-carboxamide]	++ (Cisplatin sensitization value>0.02 μM but <0.2 μM)
COCC1CCN(c2ccncc2NC(=O)c2c(N)nn3cc(F)cnc23)CC1 [I-N-282, 2-amino-6-fluoro-N-(4-(4-(methoxymethyl)piperidin-1-yl)pyridin-3-yl)pyrazolo[1,5-a]pyrimidine-3-carboxamide]	+++ (Cisplatin sensitization value of <0.02 μM)
Nc1nn2cc(Cl)cnc2c1C(=O)Nc1cnccc1OC1CCOCC1 [I-O-61, 2-amino-6-chloro-N-(4-((tetrahydro-2H-pyran-4-yl)oxy)pyridin-3-yl)pyrazolo[1,5-a]pyrimidine-3-carboxamide]	+++ (Cisplatin sensitization value of <0.02 μM)
Nc1nn2cc(Cl)cnc2c1C(=O)Nc1cnccc1N1CCC(N2CCCC2)CC1 [I-N-105, 2-amino-6-chloro-N-(4-(4-(pyrrolidin-1-yl)piperidin-1-yl)pyridin-3-yl)pyrazolo[1,5-a]pyrimidine-3-carboxamide]	+++ (Cisplatin sensitization value of <0.02 μM)
Nc1nn2cc(F)cnc2c1C(=O)Nc1cnccc1N1CCC(S(=O)(=O)C2COC2)CC1 [I-N-200, 2-amino-6-fluoro-N-(4-(4-(oxetan-3-ylsulfonyl)piperidin-1-yl)pyridin-3-yl)pyrazolo[1,5-a]pyrimidine-3-carboxamide]	+++ (Cisplatin sensitization value of <0.02 μM)
